Assays:
[1] = biological target: T1, K-Ras G12V (Homo sapiens, UniProt P01116, G12V); assay: biochemical
[2] = biological target: T1, K-Ras G12V; assay: SOS1 catalyzed nucleotide exchange assay (GDP form K-Ras), K-Ras G12V; settings: read-out: K-Ras G12V GDP Biochemical Activity (IC50)
[3] = biological target: K-Ras WT (Homo sapiens, UniProt P01116); assay: SOS1 catalyzed nucleotide exchange assay (GDP form K-Ras), K-Ras WT; settings: read-out: K-Ras WT GDP Biochemical Activity (IC50)
[4] = test system: p-ERK in AGS cells (K-Ras G12D); assay: Phospho-ERK1/2(THR202/TYR204) HTRF assay, AGS; type: cell-based; settings: Homo sapiens, 2 h, 2 hours incubation
[5] = test system: SW620 cells (K-Ras G12V); assay: 2D cell growth inhibition assay, SW620; type: cell-based; settings: Homo sapiens, SW-620, 144 h, 6 days, absolute IC50
Method: (§1) The cell growth inhibition activity of each of compounds was tested by performing cell growth inhibition assays on a variety of K-Ras mutant and K-Ras WT cell lines indicated in Table 25.
(§2) Each of cells in culture medium was plated in TC-treated 96-well plates at a density indicated in Table 25 and incubated in a cell incubator overnight. The next day, each of compounds was diluted in culture medium and added to the plates. After 6 days incubation in cell incubator, the cell viability was detected by CellTiter-Glo® Cell Viability Assay kit (Promega).

[6] = test system: AsPC-1 cells (K-Ras G12D); assay: 2D cell growth inhibition assay, AsPC-1; type: cell-based; settings: Homo sapiens, ASPC1, 144 h, AsPC-1, K-Ras G12D, 6 days, absolute IC50
Method: as §1, §2

[7] = test system: AGS cells (K-Ras G12D); assay: 2D cell growth inhibition assay, AGS; type: cell-based; settings: Homo sapiens, 144 h, 6 days, absolute IC50
[8] = test system: p-ERK in SW620 cells (K-Ras G12V); assay: Phospho-ERK1/2(THR202/TYR204) HTRF assay, SW620; type: cell-based; settings: Homo sapiens, SW-620, 2 h, 2 hours incubation

Sequence of K-Ras WT (P01116 1-169 isoform P01116-2): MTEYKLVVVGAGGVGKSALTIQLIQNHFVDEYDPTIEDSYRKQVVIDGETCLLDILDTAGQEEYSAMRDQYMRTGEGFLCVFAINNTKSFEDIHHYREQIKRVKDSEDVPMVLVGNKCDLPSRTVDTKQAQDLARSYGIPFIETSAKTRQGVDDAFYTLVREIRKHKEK
T1 sequence (P01116 1-169 isoform P01116-2 G12V): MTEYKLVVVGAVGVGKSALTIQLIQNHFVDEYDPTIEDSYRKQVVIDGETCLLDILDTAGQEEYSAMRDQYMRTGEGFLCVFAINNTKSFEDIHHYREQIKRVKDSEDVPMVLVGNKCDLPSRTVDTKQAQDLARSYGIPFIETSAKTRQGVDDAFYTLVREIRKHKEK

Row | SMILES | IC50 [1] [nM] | IC50 [2] [nM] | IC50 [3] [nM] | IC50 [4] [nM] | IC50 [5] [nM] | IC50 [6] [nM] | IC50 [7] [nM] | IC50 [8] [nM]
1 | C#Cc1c(F)ccc2cc(O)cc(-c3ncc4c(N5CCOCC(N(C)C)C5)nc(OC[C@@]56CCCN5C[C@H](F)C6)nc4c3F)c12 (stereo partly drawn) [Compound 26, 4-(4-(6-(dimethylamino)-1,4-oxazepan-4-yl)-8-fluoro-2-(((2R,7aS)-2-fluorotetrahydro-1H-pyrrolizin-7a(5H)-yl)methoxy)pyrido[4,3-d]pyrimidin-7-yl)-5-ethynyl-6-fluoronaphthalen-2-ol] | 4150 | 5.77 | 4.72 | – | – | – | – | –
2 | C#Cc1c(F)ccc2cc(O)cc(-c3ncc4c(N5CC(F)COCC5C)nc(OC[C@@]56CCCN5C[C@H](F)C6)nc4c3F)c12 (stereo partly drawn) [Compound 31, 5-ethynyl-6-fluoro-4-(8-fluoro-4-(6-fluoro-3-methyl-1,4-oxazepan-4-yl)-2-(((2R,7aS)-2-fluorotetrahydro-1H-pyrrolizin-7a(5H)-yl)methoxy)pyrido[4,3-d]pyrimidin-7-yl)naphthalen-2-ol] | 49.1 | 2.47 | 2.61 | 3.62 | 22.6 | 60.9 | 5.92 | 12.8
3 | C#Cc1c(F)ccc2cc(O)cc(-c3ncc4c(N5CCCOCC5)nc(OCC56CCCN5CC(N(C)C)C6)nc4c3F)c12 (stereo not shown) [Compound 83] | 343 | 3.11 | 8.04 | – | – | – | – | –
4 | Oc1cc(-c2ncc3c(N4CCCOCC4)nc(OC[C@@]45CCCN4C[C@H](F)C5)nc3c2F)c2c(F)c(F)ccc2c1 [Compound 40, 5,6-difluoro-4-(8-fluoro-2-(((2R,7aS)-2-fluorotetrahydro-1H-pyrrolizin-7a(5H)-yl)methoxy)-4-(1,4-oxazepan-4-yl)pyrido[4,3-d]pyrimidin-7-yl)naphthalen-2-ol trifluoroacetic acid] | 124 | 1.94 | – | 5.68 | 24.8 | 91.3 | 9.24 | 14.1
5 | C#Cc1c(F)ccc2cc(O)cc(-c3ncc4c(N5CCOCC(F)(F)C5)nc(OC[C@@]56CCCN5C[C@H](F)C6)nc4c3F)c12 [Compound 18, 4-(4-(6,6-difluoro-1,4-oxazepan-4-yl)-8-fluoro-2-(((2R,7aS)-2-fluorotetrahydro-1H-pyrrolizin-7a(5H)-yl)methoxy)pyrido[4,3-d]pyrimidin-7-yl)-5-ethynyl-6-fluoronaphthalen-2-ol trifluoroacetic acid] | 107 | 1.41 | – | 5.99 | 5.68 | 95.7 | 7.96 | 2.1
6 | C#Cc1c(F)ccc2cc(O)cc(-c3ncc4c(N5CCCO[C@@H]6C[C@@H]65)nc(OCC5(CN6CCOCC6)CC5)nc4c3F)c12 (single isomer, unassigned) [Compound 28B] | 29.2 | 2.31 | – | 1.33 | 6.63 | 18.2 | 2.23 | 3.36
7 | C#Cc1c(F)ccc2cc(O)cc(-c3ncc4c(N5CCCOCC5C)nc(OC[C@@]56CCCN5C[C@H](F)C6)nc4c3F)c12 (mixture of isomers) [Compound 16, 5-ethynyl-6-fluoro-4-(8-fluoro-2-(((2R,7aS)-2-fluorotetrahydro-1H-pyrrolizin-7a(5H)-yl)methoxy)-4-(3-methyl-1,4-oxazepan-4-yl)pyrido[4,3-d]pyrimidin-7-yl)naphthalen-2-ol trifluoroacetic acid] | 35.7 | 1.47 | – | 2.31 | 39.5 | 133 | 18.6 | 19.4
8 | C#Cc1c(F)ccc2cc(O)cc(-c3ncc4c(N5[C@H]6COC[C@@H](C)[C@@H]5C6)nc(OC[C@@]56CCCN5C[C@H](F)C6)nc4c3F)c12 [Compound 111, 5-ethynyl-6-fluoro-4-(8-fluoro-2-(((2R,7aS)-2-fluorotetrahydro-1H-pyrrolizin-7a(5H)-yl)methoxy)-4-((1R,5S,6S)-5-methyl-3-oxa-7-azabicyclo[4.1.1]octan-7-yl)pyrido [4,3-d]pyrimidin-7-yl)naphthalen-2-ol] | > 1000 | 4.21 | – | 17.4 | 73.8 | 390 | 86 | 84
